Results from ChEMBL document CHEMBL1201862, “PubChem BioAssay data set” (2004).
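Five compound concentrations were applied to cells in 96-well plates for 48 hours; endpoints were derived by simple linear interpolation of the resulting dose-response curve. At the GI50, growth is halved.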 Active and inactive are the calls of the source. No stated cut-off is given here; in the data, active = GI50 up to about 1.1 µM and inactive = higher.

Experiments:
Experiment in all cases: NCI tumour cell line growth inhibition, 48 h
HT-29 = test system: HT-29
DU-145 = test system: DU-145
T47D = test system: T47D
786-0 = test system: 786-0
CCRF-CEM = test system: CCRF-CEM
A498 = test system: A498
KM12 = test system: KM12
HOP-62 = test system: HOP-62
OVCAR-4 = test system: OVCAR-4
MDA-MB-435 = test system: MDA-MB-435
LOX IMVI = test system: LOX IMVI
SR = test system: SR
MCF7 = test system: MCF7
PC-3 = test system: PC-3
SK-OV-3 = test system: SK-OV-3
UACC-257 = test system: UACC-257
SF-295 = test system: SF-295
BT-549 = test system: BT-549
COLO 205 = test system: COLO 205
OVCAR-8 = test system: OVCAR-8
CAKI-1 = test system: CAKI-1
SW-620 = test system: SW-620
UACC-62 = test system: UACC-62
TK-10 = test system: TK-10
MOLT-4 = test system: MOLT-4
SK-MEL-28 = test system: SK-MEL-28
MDA-N = test system: MDA-N
RPMI-8226 = test system: RPMI-8226
M14 = test system: M14
K562 = test system: K562
NCI-H522 = test system: NCI-H522
MDA-MB-231 = test system: MDA-MB-231
SNB-19 = test system: SNB-19
ACHN = test system: ACHN
SN12C = test system: SN12C
A549 = test system: A549
NCI-H460 = test system: NCI-H460
SK-MEL-2 = test system: SK-MEL-2
HCT-116 = test system: HCT-116
EKVX = test system: EKVX
OVCAR-5 = test system: OVCAR-5
NCI-H226 = test system: NCI-H226
SK-MEL-5 = test system: SK-MEL-5
HCT-15 = test system: HCT-15
UO-31 = test system: UO-31
SF-268 = test system: SF-268
RXF 393 = test system: RXF 393
NCI/ADR-RES = test system: NCI/ADR-RES
OVCAR-3 = test system: OVCAR-3
HCC 2998 = test system: HCC 2998
U-251 = test system: U-251
Hs-578T = test system: Hs-578T
Malme-3M = test system: Malme-3M
IGROV-1 = test system: IGROV-1
NCI-H23 = test system: NCI-H23
HL-60 = test system: HL-60
SNB-75 = test system: SNB-75

For `O=C1c2cc(Cl)ccc2N=C(NCCCl)C2CSCN12` (stereo not drawn), the GI50 (HT-29) was > 100 µM (inactive), the GI50 (DU-145) was > 100 µM (inactive) and the GI50 (T47D) was > 100 µM (inactive). For the same compound, the GI50 (786-0) was > 100 µM (inactive), the GI50 (CCRF-CEM) was 78.7 µM (inactive) and the GI50 (A498) was > 100 µM (inactive). For the same compound, the GI50 (KM12) was > 100 µM (inactive), the GI50 (HOP-62) was > 100 µM (inactive) and the GI50 (OVCAR-4) was > 100 µM (inactive). The GI50 (MDA-MB-435) was > 100 µM (inactive), the GI50 (LOX IMVI) was > 100 µM (inactive) and the GI50 (SR) was 52.8 µM (inactive). The GI50 (MCF7) was > 100 µM (inactive), the GI50 (PC-3) was > 100 µM (inactive) and the GI50 (SK-OV-3) was > 100 µM (inactive). For the same compound, the GI50 (UACC-257) was > 100 µM (inactive), the GI50 (SF-295) was > 100 µM (inactive) and the GI50 (BT-549) was > 100 µM (inactive). For the same compound, the GI50 (COLO 205) was > 100 µM (inactive), the GI50 (OVCAR-8) was > 100 µM (inactive) and the GI50 (CAKI-1) was > 100 µM (inactive). The GI50 (SW-620) was > 100 µM (inactive), the GI50 (UACC-62) was > 100 µM (inactive) and the GI50 (TK-10) was > 100 µM (inactive). For the same compound, the GI50 (MOLT-4) was > 100 µM (inactive), the GI50 (SK-MEL-28) was > 100 µM (inactive) and the GI50 (MDA-N) was > 100 µM (inactive). For the same compound, the GI50 (RPMI-8226) was > 100 µM (inactive), the GI50 (M14) was > 100 µM (inactive) and the GI50 (K562) was 70.1 µM (inactive). The GI50 (NCI-H522) was 24.3 µM (inactive), the GI50 (MDA-MB-231) was > 100 µM (inactive) and the GI50 (SNB-19) was > 100 µM (inactive). For the same compound, the GI50 (ACHN) was > 100 µM (inactive), the GI50 (SN12C) was > 100 µM (inactive) and the GI50 (A549) was > 100 µM (inactive). For the same compound, the GI50 (NCI-H460) was > 100 µM (inactive), the GI50 (SK-MEL-2) was > 100 µM (inactive) and the GI50 (HCT-116) was > 100 µM (inactive). The GI50 (EKVX) was > 100 µM (inactive), the GI50 (OVCAR-5) was > 100 µM (inactive) and the GI50 (NCI-H226) was > 100 µM (inactive). For the same compound, the GI50 (SK-MEL-5) was > 100 µM (inactive), the GI50 (HCT-15) was > 100 µM and the GI50 (UO-31) was > 100 µM (inactive). The GI50 (SF-268) was > 100 µM (inactive), the GI50 (RXF 393) was > 100 µM (inactive) and the GI50 (NCI/ADR-RES) was > 100 µM (inactive). For the same compound, the GI50 (OVCAR-3) was > 100 µM (inactive), the GI50 (HCC 2998) was > 100 µM (inactive) and the GI50 (U-251) was > 100 µM (inactive). The GI50 (Hs-578T) was 86.5 µM (inactive), the GI50 (Malme-3M) was > 100 µM (inactive) and the GI50 (IGROV-1) was > 100 µM (inactive).
`O=C(N/N=C/c1ccc(Br)cc1)N/N=C/c1ccc(Br)cc1` was tested, and the GI50 (HT-29) was 11.4 µM (inactive), the GI50 (DU-145) was 9.12 µM (inactive) and the GI50 (T47D) was 4.38 µM (inactive). The GI50 (NCI-H23) was 22.9 µM (inactive), the GI50 (HL-60) was 13.2 µM (inactive) and the GI50 (786-0) was 3.92 µM (inactive). For the same compound, the GI50 (CCRF-CEM) was 3.24 µM (inactive), the GI50 (KM12) was 17.1 µM (inactive) and the GI50 (HOP-62) was 5.56 µM (inactive). The GI50 (OVCAR-4) was 2.37 µM (inactive), the GI50 (MDA-MB-435) was 12.3 µM (inactive) and the GI50 (LOX IMVI) was 3.98 µM (inactive). The GI50 (SR) was 4.33 µM (inactive), the GI50 (MCF7) was 11.3 µM (inactive) and the GI50 (PC-3) was 17.3 µM (inactive). The GI50 (SK-OV-3) was 2.43 µM (inactive), the GI50 (UACC-257) was 17.6 µM (inactive) and the GI50 (SF-295) was 6.19 µM (inactive). For the same compound, the GI50 (BT-549) was 20.9 µM (inactive), the GI50 (COLO 205) was 9.44 µM (inactive) and the GI50 (OVCAR-8) was 5.08 µM (inactive). The GI50 (CAKI-1) was 4.66 µM (inactive), the GI50 (SW-620) was 7.13 µM (inactive) and the GI50 (UACC-62) was 12.6 µM (inactive). For the same compound, the GI50 (TK-10) was 2.44 µM (inactive), the GI50 (MOLT-4) was 4.42 µM (inactive) and the GI50 (SK-MEL-28) was 12 µM (inactive). The GI50 (MDA-N) was 10.2 µM (inactive), the GI50 (RPMI-8226) was 10.6 µM (inactive) and the GI50 (M14) was 11.1 µM (inactive). The GI50 (K562) was 16.6 µM (inactive), the GI50 (MDA-MB-231) was 3.38 µM (inactive) and the GI50 (SNB-19) was 4.42 µM (inactive). For the same compound, the GI50 (ACHN) was 4.94 µM (inactive), the GI50 (SN12C) was 3.52 µM (inactive) and the GI50 (A549) was 16 µM (inactive). For the same compound, the GI50 (SK-MEL-2) was 75.5 µM (inactive), the GI50 (HCT-116) was 3.53 µM (inactive) and the GI50 (EKVX) was 10.3 µM (inactive). For the same compound, the GI50 (OVCAR-5) was 35.3 µM (inactive), the GI50 (NCI-H226) was 7.43 µM (inactive) and the GI50 (SK-MEL-5) was 14.1 µM (inactive). The GI50 (HCT-15) was 16.8 µM, the GI50 (UO-31) was 10.9 µM (inactive) and the GI50 (SF-268) was 10.4 µM (inactive). For the same compound, the GI50 (RXF 393) was 13.3 µM (inactive), the GI50 (NCI/ADR-RES) was 5.6 µM (inactive) and the GI50 (OVCAR-3) was 3.81 µM (inactive). For the same compound, the GI50 (HCC 2998) was 17.3 µM (inactive), the GI50 (U-251) was 6.24 µM (inactive) and the GI50 (Hs-578T) was 3.78 µM (inactive). The GI50 (Malme-3M) was 3.05 µM (inactive) and the GI50 (IGROV-1) was 4.72 µM (inactive).
In the case of `Cc1nc2cccc([N+](=O)[O-])c2n1CCCN(C)C`, the GI50 (HT-29) is reported as > 100 µM (inactive), the GI50 (DU-145) is reported as > 100 µM (inactive) and the GI50 (T47D) is reported as > 100 µM (inactive). For the same compound, the GI50 (NCI-H23) was > 100 µM (inactive), the GI50 (HL-60) was > 100 µM (inactive) and the GI50 (786-0) was > 100 µM (inactive). The GI50 (CCRF-CEM) was > 100 µM (inactive), the GI50 (A498) was > 100 µM (inactive) and the GI50 (KM12) was > 100 µM (inactive). The GI50 (HOP-62) was > 100 µM (inactive), the GI50 (OVCAR-4) was > 100 µM (inactive) and the GI50 (MDA-MB-435) was > 100 µM (inactive). For the same compound, the GI50 (LOX IMVI) was > 100 µM (inactive), the GI50 (SR) was > 100 µM (inactive) and the GI50 (MCF7) was > 100 µM (inactive). The GI50 (PC-3) was > 100 µM (inactive), the GI50 (SK-OV-3) was > 100 µM (inactive) and the GI50 (UACC-257) was > 100 µM (inactive). For the same compound, the GI50 (SF-295) was > 100 µM (inactive), the GI50 (BT-549) was > 100 µM (inactive) and the GI50 (COLO 205) was > 100 µM (inactive). For the same compound, the GI50 (OVCAR-8) was > 100 µM (inactive), the GI50 (CAKI-1) was > 100 µM (inactive) and the GI50 (SW-620) was > 100 µM (inactive). The GI50 (UACC-62) was > 100 µM (inactive), the GI50 (TK-10) was > 100 µM (inactive) and the GI50 (SK-MEL-28) was > 100 µM (inactive). The GI50 (MDA-N) was > 100 µM (inactive), the GI50 (RPMI-8226) was > 100 µM (inactive) and the GI50 (SNB-75) was > 100 µM (inactive). For the same compound, the GI50 (M14) was 22.6 µM (inactive), the GI50 (K562) was > 100 µM (inactive) and the GI50 (NCI-H522) was > 100 µM (inactive). The GI50 (MDA-MB-231) was > 100 µM (inactive), the GI50 (SNB-19) was > 100 µM (inactive) and the GI50 (ACHN) was > 100 µM (inactive). The GI50 (SN12C) was > 100 µM (inactive), the GI50 (A549) was > 100 µM (inactive) and the GI50 (NCI-H460) was > 100 µM (inactive). For the same compound, the GI50 (SK-MEL-2) was > 100 µM (inactive), the GI50 (HCT-116) was > 100 µM (inactive) and the GI50 (EKVX) was > 100 µM (inactive). The GI50 (OVCAR-5) was > 100 µM (inactive), the GI50 (NCI-H226) was > 100 µM (inactive) and the GI50 (SK-MEL-5) was > 100 µM (inactive). The GI50 (HCT-15) was > 100 µM, the GI50 (UO-31) was 16.8 µM (inactive) and the GI50 (SF-268) was > 100 µM (inactive). For the same compound, the GI50 (RXF 393) was > 100 µM (inactive), the GI50 (NCI/ADR-RES) was > 100 µM (inactive) and the GI50 (OVCAR-3) was > 100 µM (inactive). The GI50 (HCC 2998) was > 100 µM (inactive), the GI50 (U-251) was > 100 µM (inactive) and the GI50 (Hs-578T) was > 100 µM (inactive). The GI50 (Malme-3M) was > 100 µM (inactive) and the GI50 (IGROV-1) was > 100 µM (inactive).
